The text below walks through data of ChEMBL document CHEMBL1152352, “Identification of a chromone-based retinoid containing a polyolefinic side chain via facile synthetic routes” (Bioorg Med Chem Lett, 2009).

Assay [1] addresses T1, Retinoic acid receptor alpha (Homo sapiens, UniProt P10276).
T1 sequence (P10276 whole entry): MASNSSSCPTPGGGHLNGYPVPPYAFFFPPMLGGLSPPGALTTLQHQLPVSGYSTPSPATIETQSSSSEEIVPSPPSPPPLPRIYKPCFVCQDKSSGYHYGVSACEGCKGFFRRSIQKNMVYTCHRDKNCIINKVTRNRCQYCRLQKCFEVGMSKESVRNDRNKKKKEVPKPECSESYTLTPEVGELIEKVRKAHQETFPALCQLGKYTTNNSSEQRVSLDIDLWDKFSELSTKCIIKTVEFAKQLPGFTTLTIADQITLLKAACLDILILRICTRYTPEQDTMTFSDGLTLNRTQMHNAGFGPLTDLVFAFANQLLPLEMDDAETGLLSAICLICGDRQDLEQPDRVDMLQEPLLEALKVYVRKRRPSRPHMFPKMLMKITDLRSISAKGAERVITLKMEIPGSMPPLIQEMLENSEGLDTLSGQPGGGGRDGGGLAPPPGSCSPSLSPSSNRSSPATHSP
Kind of assay: Displacement of radioligand from RARalpha receptor.

In assay [2] the target is T2, Retinoic acid receptor beta (Homo sapiens, UniProt P10826).
T2 sequence (P10826 whole entry): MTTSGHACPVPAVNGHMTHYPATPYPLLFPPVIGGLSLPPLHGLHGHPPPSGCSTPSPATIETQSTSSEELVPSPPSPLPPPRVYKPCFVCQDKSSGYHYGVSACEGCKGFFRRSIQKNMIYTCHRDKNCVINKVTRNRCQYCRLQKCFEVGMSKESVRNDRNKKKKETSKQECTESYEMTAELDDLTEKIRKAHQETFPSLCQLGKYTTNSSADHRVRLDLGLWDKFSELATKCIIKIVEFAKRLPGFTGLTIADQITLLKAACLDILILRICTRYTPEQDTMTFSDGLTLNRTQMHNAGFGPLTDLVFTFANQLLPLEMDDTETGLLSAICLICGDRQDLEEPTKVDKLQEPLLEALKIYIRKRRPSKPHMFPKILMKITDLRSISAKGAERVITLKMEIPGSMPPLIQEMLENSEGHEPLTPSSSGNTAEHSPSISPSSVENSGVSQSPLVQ
In words: Displacement of radioligand from RARbeta receptor.

Assay [3] deals with T3, Retinoic acid receptor gamma (Homo sapiens, UniProt P13631).
T3 sequence (P13631 whole entry): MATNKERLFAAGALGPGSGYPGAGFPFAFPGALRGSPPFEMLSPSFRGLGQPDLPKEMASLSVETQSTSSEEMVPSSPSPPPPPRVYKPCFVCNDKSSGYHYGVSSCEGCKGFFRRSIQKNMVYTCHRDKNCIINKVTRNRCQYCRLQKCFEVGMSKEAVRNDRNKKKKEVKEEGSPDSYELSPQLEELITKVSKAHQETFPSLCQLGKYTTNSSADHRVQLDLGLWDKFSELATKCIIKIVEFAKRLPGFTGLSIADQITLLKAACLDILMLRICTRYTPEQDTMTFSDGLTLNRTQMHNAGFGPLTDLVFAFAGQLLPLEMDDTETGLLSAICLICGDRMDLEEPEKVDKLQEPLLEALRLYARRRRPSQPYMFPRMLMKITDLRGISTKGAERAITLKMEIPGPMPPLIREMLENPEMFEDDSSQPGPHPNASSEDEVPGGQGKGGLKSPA
Kind of assay: Displacement of radioligand from RARgamma receptor.

As usually defined, the IC50 is the midpoint of a concentration-inhibition curve. A higher IC50 goes with weaker potency in that assay.

Regarding `CC(=C\c1coc2cc3c(cc2c1=O)C(C)(C)CCC3(C)C)/C=C(\C)C(=O)O`, the IC50 in assay [1] was determined as 15 nM; in assay [2], 40 nM; in assay [3], 40 nM.
